# From ChEMBL document CHEMBL3091363, “Discovery of N-{5-[3-(3-hydroxypiperidin-1-yl)-1,2,4-oxadiazol-5-yl]-4-methyl-1,3-thiazol-2-yl}acetamide (TASP0415914) as an orally potent phosphoinositide 3-kinase γ inhibitor for the treatment of inflammatory diseases” (Bioorg Med Chem, 2013)
# Assays:
# [1] = Metabolic stability in rat hepatocytes assessed as compound remaining at 5 uM after 1 hr by LC-MS/MS analysis; format: ADME, cell-based, Hepatocyte; conditions: read-out: Stability
# [2] = Metabolic stability in rat liver microsomes assessed as compound remaining at 5 uM after 15 mins by LC-MS/MS analysis; format: ADME; conditions: read-out: Stability
# [3] = AUC (0 to 8 hrs) in Sprague-Dawley rat at 30 mg/kg, po; format: ADME, organism-based; parameters: time < 8 hr, dose 30 mg/kg, route oral; conditions: plasma
# [4] = Cmax in Sprague-Dawley rat at 30 mg/kg, po; format: ADME, organism-based; parameters: dose 30 mg/kg, route oral; conditions: in vivo
# [5] = target: Phosphatidylinositol 4,5-bisphosphate 3-kinase catalytic subunit gamma isoform (Mus musculus, UniProt Q9JHG7); experiment: Inhibition of PI3Kgamma in mouse RAW264.7 cells assessed as C5a-mediated PKB/Akt phosphorylation preincubated for 30 mins followed by C5a stimulation measured after 5 mins; format: cell-based
# Phosphatidylinositol 4,5-bisphosphate 3-kinase catalytic subunit gamma isoform (Mus musculus, UniProt Q9JHG7), sequence (Q9JHG7 whole entry, canonical isoform): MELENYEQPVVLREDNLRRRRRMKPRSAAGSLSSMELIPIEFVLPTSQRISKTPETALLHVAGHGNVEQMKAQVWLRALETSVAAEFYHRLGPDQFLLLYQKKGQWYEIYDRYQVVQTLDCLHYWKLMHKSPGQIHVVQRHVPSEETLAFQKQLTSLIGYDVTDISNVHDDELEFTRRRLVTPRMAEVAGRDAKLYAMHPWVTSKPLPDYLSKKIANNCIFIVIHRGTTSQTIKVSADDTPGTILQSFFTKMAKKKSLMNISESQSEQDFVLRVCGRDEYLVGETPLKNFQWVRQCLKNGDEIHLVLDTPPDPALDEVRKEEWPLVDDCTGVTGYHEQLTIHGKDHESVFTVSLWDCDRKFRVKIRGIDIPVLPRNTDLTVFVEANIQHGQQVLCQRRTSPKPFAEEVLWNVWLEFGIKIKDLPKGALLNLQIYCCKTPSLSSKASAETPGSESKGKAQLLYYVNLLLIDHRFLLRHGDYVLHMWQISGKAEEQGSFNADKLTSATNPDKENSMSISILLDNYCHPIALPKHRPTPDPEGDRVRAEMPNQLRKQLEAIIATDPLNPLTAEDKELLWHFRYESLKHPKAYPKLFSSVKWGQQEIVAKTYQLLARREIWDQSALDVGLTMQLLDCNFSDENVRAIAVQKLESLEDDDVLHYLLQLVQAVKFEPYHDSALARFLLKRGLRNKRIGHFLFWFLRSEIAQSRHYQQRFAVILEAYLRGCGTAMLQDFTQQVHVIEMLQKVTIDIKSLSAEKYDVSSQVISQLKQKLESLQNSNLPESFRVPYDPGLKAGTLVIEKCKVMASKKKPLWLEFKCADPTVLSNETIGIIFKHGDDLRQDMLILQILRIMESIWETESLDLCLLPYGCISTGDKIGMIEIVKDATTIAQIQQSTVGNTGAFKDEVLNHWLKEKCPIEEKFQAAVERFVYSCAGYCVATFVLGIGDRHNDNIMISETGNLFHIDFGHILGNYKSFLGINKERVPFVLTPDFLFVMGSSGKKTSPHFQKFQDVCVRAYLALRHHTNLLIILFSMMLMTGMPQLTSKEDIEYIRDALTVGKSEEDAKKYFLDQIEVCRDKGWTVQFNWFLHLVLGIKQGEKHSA
# [6] = Metabolic stability in human liver microsomes assessed as compound remaining at 5 uM after 15 mins by LC-MS/MS analysis; format: ADME; conditions: read-out: Stability
# [7] = Metabolic stability in human hepatocytes assessed as compound remaining at 5 uM after 1 hr by LC-MS/MS analysis; format: ADME, cell-based, Hepatocyte; conditions: read-out: Stability
# [8] = target: Phosphatidylinositol 4,5-bisphosphate 3-kinase catalytic subunit gamma isoform (Homo sapiens, UniProt P48736); experiment: Inhibition of human PI3Kgamma using PtdIns/PtdSer as substrate after 2 hrs by scintillation counting analysis in presence of gamma[33P]ATP
# Phosphatidylinositol 4,5-bisphosphate 3-kinase catalytic subunit gamma isoform (Homo sapiens, UniProt P48736), sequence (P48736 whole entry, canonical isoform): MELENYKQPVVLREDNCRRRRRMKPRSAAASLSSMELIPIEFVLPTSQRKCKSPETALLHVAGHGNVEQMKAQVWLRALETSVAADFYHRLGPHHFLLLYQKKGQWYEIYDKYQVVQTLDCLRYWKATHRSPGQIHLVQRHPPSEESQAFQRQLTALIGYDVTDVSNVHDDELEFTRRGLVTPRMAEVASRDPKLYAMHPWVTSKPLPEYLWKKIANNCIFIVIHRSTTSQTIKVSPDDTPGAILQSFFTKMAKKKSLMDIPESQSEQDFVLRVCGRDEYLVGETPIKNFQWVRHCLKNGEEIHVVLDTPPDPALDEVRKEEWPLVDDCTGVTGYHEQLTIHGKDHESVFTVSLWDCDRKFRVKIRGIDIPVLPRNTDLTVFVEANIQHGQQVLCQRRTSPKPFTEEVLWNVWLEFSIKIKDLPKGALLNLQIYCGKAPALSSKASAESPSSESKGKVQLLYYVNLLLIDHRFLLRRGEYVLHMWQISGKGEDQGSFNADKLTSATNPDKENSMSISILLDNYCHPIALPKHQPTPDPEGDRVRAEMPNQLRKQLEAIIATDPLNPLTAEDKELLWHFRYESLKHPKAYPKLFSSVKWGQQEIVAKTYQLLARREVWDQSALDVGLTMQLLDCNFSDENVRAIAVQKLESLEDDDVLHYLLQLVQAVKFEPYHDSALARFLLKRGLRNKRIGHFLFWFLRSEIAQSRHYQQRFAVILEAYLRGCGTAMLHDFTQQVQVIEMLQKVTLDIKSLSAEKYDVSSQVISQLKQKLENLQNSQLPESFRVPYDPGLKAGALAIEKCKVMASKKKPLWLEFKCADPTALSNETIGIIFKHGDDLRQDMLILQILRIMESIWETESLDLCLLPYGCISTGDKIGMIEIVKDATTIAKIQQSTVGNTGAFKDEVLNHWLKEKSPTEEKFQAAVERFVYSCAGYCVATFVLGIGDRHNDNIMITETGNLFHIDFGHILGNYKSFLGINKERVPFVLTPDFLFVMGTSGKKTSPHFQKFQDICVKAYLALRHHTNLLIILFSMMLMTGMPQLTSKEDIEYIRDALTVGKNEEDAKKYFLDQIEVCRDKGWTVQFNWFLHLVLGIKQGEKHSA
# Cytochrome P450 2C19 = Cytochrome P450 2C19 (Homo sapiens, UniProt P33261); experiment: Inhibition of CYP2C19 (unknown origin) up to 10 uM; format: ADME
# Cytochrome P450 2C19, sequence (P33261 whole entry): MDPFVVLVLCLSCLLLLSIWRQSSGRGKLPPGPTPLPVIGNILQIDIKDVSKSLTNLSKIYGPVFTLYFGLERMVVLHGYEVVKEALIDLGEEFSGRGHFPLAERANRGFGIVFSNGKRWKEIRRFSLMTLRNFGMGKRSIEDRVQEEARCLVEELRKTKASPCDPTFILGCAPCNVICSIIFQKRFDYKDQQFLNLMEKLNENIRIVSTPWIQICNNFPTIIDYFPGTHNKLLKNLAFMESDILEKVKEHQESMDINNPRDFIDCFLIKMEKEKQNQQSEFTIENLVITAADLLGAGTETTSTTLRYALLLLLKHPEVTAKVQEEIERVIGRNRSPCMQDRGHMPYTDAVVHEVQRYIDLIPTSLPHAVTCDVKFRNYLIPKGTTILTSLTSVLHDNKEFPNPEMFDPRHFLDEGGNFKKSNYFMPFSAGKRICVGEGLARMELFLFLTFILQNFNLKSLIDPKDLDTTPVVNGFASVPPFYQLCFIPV
# Mus musculus = experiment: Antiarthritic activity in po dosed DBA/1 mouse assessed as suppression of acute collagen-induced arthritis administered as bid for 14 days; format: functional, organism-based
# Cytochrome P450 2C9 = Cytochrome P450 2C9 (Homo sapiens, UniProt P11712); experiment: Inhibition of CYP2C9 (unknown origin) up to 10 uM; format: ADME
# Cytochrome P450 2C9, sequence (P11712 whole entry): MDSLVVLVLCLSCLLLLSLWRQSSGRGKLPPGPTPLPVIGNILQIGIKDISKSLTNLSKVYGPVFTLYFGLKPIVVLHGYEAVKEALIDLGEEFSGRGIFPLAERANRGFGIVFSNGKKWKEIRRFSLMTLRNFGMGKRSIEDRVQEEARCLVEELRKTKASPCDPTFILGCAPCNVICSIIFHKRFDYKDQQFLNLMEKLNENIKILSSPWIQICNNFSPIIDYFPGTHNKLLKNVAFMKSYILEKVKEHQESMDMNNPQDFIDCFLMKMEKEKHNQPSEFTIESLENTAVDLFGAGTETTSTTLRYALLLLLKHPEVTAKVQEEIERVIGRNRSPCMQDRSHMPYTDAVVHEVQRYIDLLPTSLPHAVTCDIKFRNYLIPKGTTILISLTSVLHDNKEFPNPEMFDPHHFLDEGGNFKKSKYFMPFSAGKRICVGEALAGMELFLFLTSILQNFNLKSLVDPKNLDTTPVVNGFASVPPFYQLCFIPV
# Salmonella typhimurium [9] = experiment: Mutagenicity in Salmonella typhimurium TA100 up to 2000 ug/ml by Ames fluctuation test; format: toxicity, organism-based; conditions: salmonella enterica subsp. enterica serovar typhimurium
# Cytochrome P450 2D6 = Cytochrome P450 2D6 (Homo sapiens, UniProt P10635); experiment: Inhibition of CYP2D6 (unknown origin) up to 10 uM; format: ADME
# Cytochrome P450 2D6, sequence (P10635 whole entry): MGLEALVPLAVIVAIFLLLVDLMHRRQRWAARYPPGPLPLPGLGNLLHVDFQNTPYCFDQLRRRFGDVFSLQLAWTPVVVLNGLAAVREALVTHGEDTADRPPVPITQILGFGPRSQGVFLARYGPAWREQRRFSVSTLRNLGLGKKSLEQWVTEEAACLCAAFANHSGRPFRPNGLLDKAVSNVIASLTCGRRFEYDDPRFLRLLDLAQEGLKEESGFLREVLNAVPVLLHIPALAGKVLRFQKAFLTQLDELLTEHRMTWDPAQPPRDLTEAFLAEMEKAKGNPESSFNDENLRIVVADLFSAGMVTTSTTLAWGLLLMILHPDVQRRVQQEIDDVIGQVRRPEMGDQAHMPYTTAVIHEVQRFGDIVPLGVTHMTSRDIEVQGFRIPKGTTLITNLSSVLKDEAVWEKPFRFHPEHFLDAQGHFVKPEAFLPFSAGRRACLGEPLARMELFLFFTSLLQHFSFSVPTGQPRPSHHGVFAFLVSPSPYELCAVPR
# Cytochrome P450 1A2 = target: T1, Cytochrome P450 1A2 (Homo sapiens, UniProt P05177); experiment: Inhibition of CYP1A2 (unknown origin) up to 10 uM; format: ADME
# T1 sequence (P05177 whole entry): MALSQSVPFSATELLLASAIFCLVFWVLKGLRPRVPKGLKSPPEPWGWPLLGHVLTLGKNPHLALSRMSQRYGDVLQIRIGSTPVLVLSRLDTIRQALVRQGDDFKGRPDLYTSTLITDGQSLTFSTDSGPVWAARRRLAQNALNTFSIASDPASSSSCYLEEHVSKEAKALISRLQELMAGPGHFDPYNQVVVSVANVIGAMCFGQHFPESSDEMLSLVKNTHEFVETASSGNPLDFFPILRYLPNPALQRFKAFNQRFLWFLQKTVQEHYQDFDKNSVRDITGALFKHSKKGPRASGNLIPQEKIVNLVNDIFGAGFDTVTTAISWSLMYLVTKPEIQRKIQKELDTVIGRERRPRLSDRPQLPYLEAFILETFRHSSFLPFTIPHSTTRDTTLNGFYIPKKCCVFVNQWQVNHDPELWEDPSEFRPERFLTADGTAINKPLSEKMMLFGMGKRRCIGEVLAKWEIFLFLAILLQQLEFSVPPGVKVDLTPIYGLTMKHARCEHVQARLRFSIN
# Salmonella typhimurium [10] = experiment: Mutagenicity in Salmonella typhimurium TA98 up to 5000 ug/ml by Ames test in presence of rat S9 fraction; format: toxicity, organism-based; conditions: salmonella enterica subsp. enterica serovar typhimurium
# Salmonella typhimurium [11] = experiment: Mutagenicity in Salmonella typhimurium TA100 up to 5000 ug/ml by Ames test in absence of rat S9 fraction; format: toxicity, organism-based; conditions: salmonella enterica subsp. enterica serovar typhimurium
# Cytochrome P450 3A4 = Cytochrome P450 3A4 (Homo sapiens, UniProt P08684); experiment: Inhibition of CYP3A4 (unknown origin) up to 10 uM; format: ADME
# Cytochrome P450 3A4, sequence (P08684 whole entry): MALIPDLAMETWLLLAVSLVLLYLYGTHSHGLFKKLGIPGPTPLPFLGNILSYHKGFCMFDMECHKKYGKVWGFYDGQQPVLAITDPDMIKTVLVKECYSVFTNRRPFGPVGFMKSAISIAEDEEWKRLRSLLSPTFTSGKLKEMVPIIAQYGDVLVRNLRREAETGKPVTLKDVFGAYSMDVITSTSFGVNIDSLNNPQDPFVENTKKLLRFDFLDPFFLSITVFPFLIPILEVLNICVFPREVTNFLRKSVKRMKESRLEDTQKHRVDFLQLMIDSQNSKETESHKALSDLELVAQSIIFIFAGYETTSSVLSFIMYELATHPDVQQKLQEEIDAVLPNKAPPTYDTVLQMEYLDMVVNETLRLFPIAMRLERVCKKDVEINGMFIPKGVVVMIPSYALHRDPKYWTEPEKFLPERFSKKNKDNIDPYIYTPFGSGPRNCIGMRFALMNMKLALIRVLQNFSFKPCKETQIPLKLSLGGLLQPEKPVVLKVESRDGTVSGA
# Salmonella typhimurium [12] = experiment: Mutagenicity in Salmonella typhimurium TA98 up to 5000 ug/ml by Ames test in absence of rat S9 fraction; format: toxicity, organism-based; conditions: salmonella enterica subsp. enterica serovar typhimurium
# Salmonella typhimurium [13] = experiment: Mutagenicity in Salmonella typhimurium TA100 up to 5000 ug/ml by Ames test in presence of rat S9 fraction; format: toxicity, organism-based; conditions: salmonella enterica subsp. enterica serovar typhimurium
# Salmonella typhimurium [14] = experiment: Mutagenicity in Salmonella typhimurium TA98 up to 2000 ug/ml by Ames fluctuation test; format: toxicity, organism-based; conditions: salmonella enterica subsp. enterica serovar typhimurium
# Escherichia coli [15] = experiment: Mutagenicity in Escherichia coli WP2uvrA up to 5000 ug/ml by Ames test in absence of rat S9 fraction; format: toxicity, organism-based
# Escherichia coli [16] = experiment: Mutagenicity in Escherichia coli WP2uvrA up to 5000 ug/ml by Ames test in presence of rat S9 fraction; format: toxicity, organism-based
compound,measurement,setting,value
CC(=O)Nc1nc(C)c(-c2nc(CC(C)(C)C(C)O)no2)s1 (stereo not drawn),"remaining at 1 h, 5 µM",[1],20.9%
same,"remaining at 0.25 h, 5 µM",[2],91.5%
same,AUC(0-t) at 8 h,[3],10900 ng·h/mL
same,Cmax,[4],7800 ng/mL
same,IC50,[5],155 nM
same,"remaining at 0.25 h, 5 µM",[6],94.1%
same,"remaining at 1 h, 5 µM",[7],35.2%
same,IC50,[8],17 nM
CC(=O)Nc1nc(C)c(-c2nc(N3CCCC(O)C3)no2)s1 (stereo not drawn),inhibition (INH),Cytochrome P450 2C19,Not Active
same,Activity,Mus musculus,Dose-dependent effect
same,inhibition (INH),Cytochrome P450 2C9,Not Active
same,"remaining at 1 h, 5 µM",[1],62.1%
same,Activity,Salmonella typhimurium [9],Non-toxic
same,inhibition (INH),Cytochrome P450 2D6,Not Active
same,inhibition (INH),Cytochrome P450 1A2,Not Active
same,Activity,Salmonella typhimurium [10],Non-toxic
same,Activity,Salmonella typhimurium [11],Non-toxic
same,"remaining at 0.25 h, 5 µM",[2],97.1%
same,inhibition (INH),Cytochrome P450 3A4,Not Active
same,AUC(0-t) at 8 h,[3],10800 ng·h/mL
same,Cmax,[4],3920 ng/mL
same,Activity,Salmonella typhimurium [12],Non-toxic
same,Activity,Salmonella typhimurium [13],Non-toxic
same,Activity,Salmonella typhimurium [14],Non-toxic
same,Activity,Escherichia coli [15],Non-toxic
same,IC50,[5],294 nM
same,Activity,Escherichia coli [16],Non-toxic
same,"remaining at 0.25 h, 5 µM",[6],96.9%
same,"remaining at 1 h, 5 µM",[7],75.7%
same,IC50,[8],29 nM
CC(=O)Nc1nc(C)c(-c2nc(C(C)(C)CO)no2)s1,IC50,[8],52 nM
CC(=O)Nc1nc(C)c(-c2nc(C(C)(C)C)no2)s1,IC50,[5],231 nM
same,IC50,[8],14 nM
CC(=O)Nc1nc(C)c(-c2nc(C3CCOC3)no2)s1 (stereo not drawn),IC50,[5],558 nM
same,IC50,[8],57 nM
CC(=O)Nc1nc(C)c(-c2nc(CC(C)(C)CO)no2)s1,"remaining at 1 h, 5 µM",[1],11.3%
same,"remaining at 0.25 h, 5 µM",[2],94%
same,AUC(0-t) at 8 h,[3],92 ng·h/mL
same,Cmax,[4],38 ng/mL
same,IC50,[5],191 nM
same,"remaining at 0.25 h, 5 µM",[6],102%
same,"remaining at 1 h, 5 µM",[7],9.3%
same,IC50,[8],7.2 nM
COCC(C)(C)Cc1noc(-c2sc(NC(C)=O)nc2C)n1,IC50,[8],68 nM
CC(=O)Nc1nc(C)c(-c2nc(CCCO)no2)s1,IC50,[8],121 nM
CC(=O)Nc1nc(C)c(-c2nc(CCO)no2)s1,IC50,[8],158 nM
Cc1nc(N)sc1-c1nc(N2CCCC(O)C2)no1 (stereo not drawn),Activity,Salmonella typhimurium [9],Non-toxic
same,Activity,Salmonella typhimurium [10],Non-toxic
same,Activity,Salmonella typhimurium [11],Non-toxic
same,Activity,Salmonella typhimurium [12],Non-toxic
same,Activity,Salmonella typhimurium [13],Non-toxic
same,Activity,Salmonella typhimurium [14],Non-toxic
same,Activity,Escherichia coli [15],Non-toxic
same,Activity,Escherichia coli [16],Non-toxic
Cc1nc(N)sc1-c1cnc(C(C)(C)C)o1,Activity,Salmonella typhimurium [9],Toxic
same,Activity,Salmonella typhimurium [10],Toxic
same,Activity,Salmonella typhimurium [11],Toxic
same,Activity,Salmonella typhimurium [12],Toxic
same,Activity,Salmonella typhimurium [13],Toxic
same,Activity,Salmonella typhimurium [14],Toxic
same,Activity,Escherichia coli [15],Toxic
same,Activity,Escherichia coli [16],Toxic
same,IC50,[8],81 nM
CC(=O)Nc1nc(C)c(-c2cnc(C(C)(C)C)o2)s1,Activity,Salmonella typhimurium [10],Non-toxic
same,Activity,Salmonella typhimurium [11],Non-toxic
same,Activity,Salmonella typhimurium [12],Non-toxic
same,Activity,Salmonella typhimurium [13],Non-toxic
same,Activity,Escherichia coli [15],Non-toxic
same,Activity,Escherichia coli [16],Non-toxic
CC(=O)Nc1nc(C)c(-c2nc(CC(C)(C)O)no2)s1,IC50,[8],68 nM
CC(=O)Nc1nc(C)c(-c2nc(CC(F)(F)F)no2)s1,"remaining at 0.25 h, 5 µM",[2],72.9%
same,AUC(0-t) at 8 h,[3],1180 ng·h/mL
same,Cmax,[4],345 ng/mL
same,IC50,[5],278 nM
same,"remaining at 0.25 h, 5 µM",[6],79.1%
same,IC50,[8],28 nM
CC(=O)Nc1nc(C)c(-c2nc(N3CCOCC3)no2)s1,IC50,[8],100 nM
Cc1nc(N)sc1-c1nc(C(C)(C)C)no1,Activity,Salmonella typhimurium [9],Non-toxic
same,Activity,Salmonella typhimurium [10],Non-toxic
same,Activity,Salmonella typhimurium [11],Non-toxic
same,Activity,Salmonella typhimurium [12],Non-toxic
same,Activity,Salmonella typhimurium [13],Non-toxic
same,Activity,Salmonella typhimurium [14],Non-toxic
same,Activity,Escherichia coli [15],Non-toxic
same,Activity,Escherichia coli [16],Non-toxic
same,IC50,[8],68 nM
CC(=O)Nc1nc(C)c(-c2nc(CCC(C)(C)O)no2)s1,IC50,[8],203 nM
CC(=O)Nc1nc(C)c(-c2nc(C(C)(C)CCO)no2)s1,IC50,[8],62 nM
